Tests used:
Type in all cases: in vivo
C57BL/KsBom-db/db mice [1] = test: Serum lipid profile of treated db/db mice (antidyslipidemic activity); conditions: 25 mg/kg; for Cholesterol % change compared to control / HDL-Chol % change compared to control / Triglycerides % change compared to control: vs sham
Procedure: (§1) C57BL/KsBom-db/db mice (12-18 weeks old), weighing around 35+g bred in the animal house of CDRI, Lucknow, were used in the present experiments. The mice were housed in groups of 3 to 5 (same sex) in a room controlled for temperature (23±2.0 ° C.) and 12/12 hours light/dark cycle (lights on at 6.00 am). Body weight of each animal was measured daily from day 1 to day 10 of the experiment. All animals had free access to fresh water and normal pellet diet except on the day of the postprandial protocol (day 6) and during the overnight fast before the OGTT on day 10. The animals always had access to water during experimental periods. Blood glucose was checked every morning up till day 10. On day 10 an oral glucose tolerance test (OGTT) was performed after an overnight fasting. Blood glucose was measured at −30.0 min and test compounds were administered. The blood glucose was again measured at 0 min just post treatment and at this juncture glucose solution was given at a dose of 3 gm/kg to all the groups including the vehicle treated group. The blood glucose levels were checked at 30 min, 60 min, 90 min and 120 min post glucose administration. The data was analyzed for its significance on Prism software.

C57BL/KsBom-db/db mice [2] = test: Blood glucose profile of db/db mice during daily treatment (antihyperglycemic activity); conditions: for Blood glucose % change compared to control, day 1: day 1, vs sham; for Blood glucose % change compared to control, day 2: day 2, vs sham; for Blood glucose % change compared to control, day 3: day 3, vs sham; for Blood glucose % change compared to control, day 4: day 4, vs sham; for Blood glucose % change compared to control, day 5: day 5, vs sham; for Blood glucose % change compared to control, day 6: day 6, vs sham; for Blood glucose % change compared to control, day 7: day 7, vs sham; for Blood glucose % change compared to control, day 8: day 8, vs sham; for Blood glucose % change compared to control, day 9: day 9, vs sham
Procedure: as §1

C57BL/KsBom-db/db mice [3] = test: Oral glucose tolerance test (OGTT) on day 10 in db/db mice; conditions: 25 mg/kg; for Blood glucose profile, 0 min post glucose load / Blood glucose % change compared to control, 0 min post glucose load: OGTT day 10, 0 min; for Blood glucose % change compared to control, 0 min post glucose load / Blood glucose % change compared to control, 30 min post glucose load / Blood glucose % change compared to control, 60 min post glucose load / Blood glucose % change compared to control, 90 min post glucose load / Blood glucose % change compared to control, 120 min post glucose load / Blood glucose % change compared to control, −30 min post glucose load: vs sham; for Blood glucose profile, 30 min post glucose load / Blood glucose % change compared to control, 30 min post glucose load: OGTT day 10, 30 min; for Blood glucose profile, 60 min post glucose load / Blood glucose % change compared to control, 60 min post glucose load: OGTT day 10, 60 min; for Blood glucose profile, 90 min post glucose load / Blood glucose % change compared to control, 90 min post glucose load: OGTT day 10, 90 min; for Blood glucose profile, 120 min post glucose load / Blood glucose % change compared to control, 120 min post glucose load: OGTT day 10, 120 min; for Blood glucose profile, −30 min post glucose load / Blood glucose % change compared to control, −30 min post glucose load: OGTT day 10, −30 min
Procedure: as §1

C57BL/KsBom-db/db mice [4] = test: Serum lipid profile of treated db/db mice (antidyslipidemic activity); conditions: db/db mice, test dose 25 mg/kg

CC(C)NCC(O)COc1ccc2c(=O)cc(-c3cc(O)cc(O)c3)oc2c1 (stereo in doubt) [S-002-857 (R), (R)-(−)-7-(2-Hydroxy-3-isopropylaminopropoxy)-3′,5′-dihydroxy flavone]
Serum lipid profile: Cholesterol (C57BL/KsBom-db/db mice [1]): 160 ± 6.66 mg/dL
Serum lipid profile: HDL-Chol (C57BL/KsBom-db/db mice [1]): 59.0 ± 2.65 mg/dL
Serum lipid profile: Triglycerides (C57BL/KsBom-db/db mice [1]): 130 ± 3.06 mg/dL
serum cholesterol, triglycerides (lipid profile) compared to sham treated (in words) (C57BL/KsBom-db/db mice [1]): no statistically significant difference
Cholesterol % change compared to control (C57BL/KsBom-db/db mice [1]): −6.18%
HDL-Chol % change compared to control (C57BL/KsBom-db/db mice [1]): +5.35%
Triglycerides % change compared to control (C57BL/KsBom-db/db mice [1]): −1.72%
blood glucose profile compared to sham treated (in words) (C57BL/KsBom-db/db mice [2]; 25 mg/kg): marginal fall in blood glucose profile
Blood glucose, day 1 post treatment (C57BL/KsBom-db/db mice [2]; 25 mg/kg): 12.5 ± 2.55 mM
Blood glucose % change compared to control, day 1 (C57BL/KsBom-db/db mice [2]; 25 mg/kg): 0.0%
Blood glucose, day 2 post treatment (C57BL/KsBom-db/db mice [2]; 25 mg/kg): 12.3 ± 2.67 mM
Blood glucose % change compared to control, day 2 (C57BL/KsBom-db/db mice [2]; 25 mg/kg): −1.25%
Blood glucose, day 3 post treatment (C57BL/KsBom-db/db mice [2]; 25 mg/kg): 12.1 ± 2.02 mM
Blood glucose % change compared to control, day 3 (C57BL/KsBom-db/db mice [2]; 25 mg/kg): −3.28%
Blood glucose, day 4 post treatment (C57BL/KsBom-db/db mice [2]; 25 mg/kg): 11.5 ± 1.86 mM
Blood glucose % change compared to control, day 4 (C57BL/KsBom-db/db mice [2]; 25 mg/kg): −11.5%
Blood glucose, day 5 post treatment (C57BL/KsBom-db/db mice [2]; 25 mg/kg): 11.9 ± 2.74 mM
Blood glucose % change compared to control, day 5 (C57BL/KsBom-db/db mice [2]; 25 mg/kg): −13.1%
Blood glucose, day 6 post treatment (C57BL/KsBom-db/db mice [2]; 25 mg/kg): 11.6 ± 2.73 mM
Blood glucose % change compared to control, day 6 (C57BL/KsBom-db/db mice [2]; 25 mg/kg): −10.7%
Blood glucose, day 7 post treatment (C57BL/KsBom-db/db mice [2]; 25 mg/kg): 11.7 ± 1.78 mM
Blood glucose % change compared to control, day 7 (C57BL/KsBom-db/db mice [2]; 25 mg/kg): −22.0%
Blood glucose, day 8 post treatment (C57BL/KsBom-db/db mice [2]; 25 mg/kg): 11.0 ± 0.35 mM
Blood glucose % change compared to control, day 8 (C57BL/KsBom-db/db mice [2]; 25 mg/kg): −13.4%
Blood glucose, day 9 post treatment (C57BL/KsBom-db/db mice [2]; 25 mg/kg): 11.5 ± 1.00 mM
Blood glucose % change compared to control, day 9 (C57BL/KsBom-db/db mice [2]; 25 mg/kg): −14.0%
Blood glucose, day 10 post treatment (C57BL/KsBom-db/db mice [2]; 25 mg/kg, day 10): 11.9 ± 5.21 mM
Blood glucose % change compared to control, day 10 (C57BL/KsBom-db/db mice [2]; 25 mg/kg, day 10, vs sham): −8.30%
oral glucose tolerance compared to sham treated (in words) (C57BL/KsBom-db/db mice [3]): slight improvement in glucose tolerance
Blood glucose profile, 0 min post glucose load (C57BL/KsBom-db/db mice [3]): 16.3 ± 3.91 mM
Blood glucose % change compared to control, 0 min post glucose load (C57BL/KsBom-db/db mice [3]): −7.05%
Blood glucose profile, 30 min post glucose load (C57BL/KsBom-db/db mice [3]): 27.6 ± 1.53 mM
Blood glucose % change compared to control, 30 min post glucose load (C57BL/KsBom-db/db mice [3]): −16.7%
Blood glucose profile, 60 min post glucose load (C57BL/KsBom-db/db mice [3]): 24.4 ± 2.99 mM
Blood glucose % change compared to control, 60 min post glucose load (C57BL/KsBom-db/db mice [3]): −10.0%
Blood glucose profile, 90 min post glucose load (C57BL/KsBom-db/db mice [3]): 20.6 ± 2.08 mM
Blood glucose % change compared to control, 90 min post glucose load (C57BL/KsBom-db/db mice [3]): −7.39%
Blood glucose profile, 120 min post glucose load (C57BL/KsBom-db/db mice [3]): 16.0 ± 1.73 mM
Blood glucose % change compared to control, 120 min post glucose load (C57BL/KsBom-db/db mice [3]): −14.3%
Blood glucose profile, −30 min post glucose load (C57BL/KsBom-db/db mice [3]): 11.8 ± 5.21 mM
Blood glucose % change compared to control, −30 min post glucose load (C57BL/KsBom-db/db mice [3]): −8.31%

CC(C)(C)NC[C@@H](O)COc1ccc2c(=O)cc(-c3cc(OCc4ccccc4)cc(OCc4ccccc4)c3)oc2c1 [S-002-853 (R), (R)-(−)-7-(3-tert-butylamino-2-hydroxypropoxy)-3′,5′-dibenzyloxyflavone]
HDL-cholesterol levels compared to sham treated (in words) (C57BL/KsBom-db/db mice [1]): no significant difference in the HDL-cholesterol levels
Serum lipid profile: Cholesterol (C57BL/KsBom-db/db mice [1]): 144.0 ± 7.37 mg/dL
Serum lipid profile: HDL-Chol (C57BL/KsBom-db/db mice [1]): 58.0 ± 6.24 mg/dL
Serum lipid profile: Triglycerides (C57BL/KsBom-db/db mice [1]): 132.0 ± 11.5 mg/dL
serum cholesterol, triglycerides (lipid profile) compared to sham treated (in words) (C57BL/KsBom-db/db mice [1]): no significant lowering in either the case of serum cholesterol or triglycerides
Cholesterol % change compared to control (C57BL/KsBom-db/db mice [1]): −3.72%
HDL-Chol % change compared to control (C57BL/KsBom-db/db mice [1]): +8.06%
Triglycerides % change compared to control (C57BL/KsBom-db/db mice [1]): −9.72%
Comparative antihyperlipidemic activity: HDL-C (C57BL/KsBom-db/db mice [4]): +8.06^ns
Comparative antihyperlipidemic activity: T-Chol (C57BL/KsBom-db/db mice [4]): −3.72^ns
Comparative antihyperlipidemic activity: TG (C57BL/KsBom-db/db mice [4]): −9.72^ns
antihyperglycemic and antidyslipidemic/antihyperlipidemic activity (in words) (C57BL/KsBom-db/db mice [2]; 25 mg/kg): insignificant antihyperglycemic or antihyperlipidemic effects
blood glucose profile compared to sham treated (in words) (C57BL/KsBom-db/db mice [2]; 25 mg/kg): no significant difference in the blood glucose profile between the two groups at any day
Blood glucose, day 1 post treatment (C57BL/KsBom-db/db mice [2]; 25 mg/kg): 12.0 ± 2.52 mM
Blood glucose % change compared to control, day 1 (C57BL/KsBom-db/db mice [2]; 25 mg/kg): +1.1%
Blood glucose, day 2 post treatment (C57BL/KsBom-db/db mice [2]; 25 mg/kg): 12.4 ± 2.65 mM
Blood glucose % change compared to control, day 2 (C57BL/KsBom-db/db mice [2]; 25 mg/kg): −31.9%
Blood glucose, day 3 post treatment (C57BL/KsBom-db/db mice [2]; 25 mg/kg): 10.3 ± 1.33 mM
Blood glucose % change compared to control, day 3 (C57BL/KsBom-db/db mice [2]; 25 mg/kg): −24.1%
Blood glucose, day 4 post treatment (C57BL/KsBom-db/db mice [2]; 25 mg/kg): 13.3 ± 4.61 mM
Blood glucose % change compared to control, day 4 (C57BL/KsBom-db/db mice [2]; 25 mg/kg): −18.1%
Blood glucose, day 5 post treatment (C57BL/KsBom-db/db mice [2]; 25 mg/kg): 12.3 ± 4.32 mM
Blood glucose % change compared to control, day 5 (C57BL/KsBom-db/db mice [2]; 25 mg/kg): −24.0%
Blood glucose, day 6 post treatment (C57BL/KsBom-db/db mice [2]; 25 mg/kg): 12.1 ± 3.82 mM
Blood glucose % change compared to control, day 6 (C57BL/KsBom-db/db mice [2]; 25 mg/kg): −19.8%
Blood glucose, day 7 post treatment (C57BL/KsBom-db/db mice [2]; 25 mg/kg): 14.5 ± 5.49 mM
Blood glucose % change compared to control, day 7 (C57BL/KsBom-db/db mice [2]; 25 mg/kg): −31.9%
Blood glucose, day 8 post treatment (C57BL/KsBom-db/db mice [2]; 25 mg/kg): 13.4 ± 4.54 mM
Blood glucose % change compared to control, day 8 (C57BL/KsBom-db/db mice [2]; 25 mg/kg): −35.4%
Blood glucose, day 9 post treatment (C57BL/KsBom-db/db mice [2]; 25 mg/kg): 13.5 ± 4.66 mM
Blood glucose % change compared to control, day 9 (C57BL/KsBom-db/db mice [2]; 25 mg/kg): −38.3%
Comparative antihyperglycemic activity: Average Fall (C57BL/KsBom-db/db mice [2]; test dose 25 mg/kg, day given in brackets): 38.3%
oral glucose tolerance compared to sham treated (in words) (C57BL/KsBom-db/db mice [3]): no difference in oral glucose tolerance curve
Blood glucose profile, 0 min post glucose load (C57BL/KsBom-db/db mice [3]): 20.3 ± 4.74 mM
Blood glucose % change compared to control, 0 min post glucose load (C57BL/KsBom-db/db mice [3]): −3.30%
Blood glucose profile, 30 min post glucose load (C57BL/KsBom-db/db mice [3]): 34.3 ± 16.9 mM
Blood glucose % change compared to control, 30 min post glucose load (C57BL/KsBom-db/db mice [3]): +3.70%
Blood glucose profile, 60 min post glucose load (C57BL/KsBom-db/db mice [3]): 25.9 ± 9.75 mM
Blood glucose % change compared to control, 60 min post glucose load (C57BL/KsBom-db/db mice [3]): 0.00%
Blood glucose profile, 90 min post glucose load (C57BL/KsBom-db/db mice [3]): 24.5 ± 9.13 mM
Blood glucose % change compared to control, 90 min post glucose load (C57BL/KsBom-db/db mice [3]): +17.0%
Blood glucose profile, 120 min post glucose load (C57BL/KsBom-db/db mice [3]): 23.0 ± 10.0 mM
Blood glucose % change compared to control, 120 min post glucose load (C57BL/KsBom-db/db mice [3]): +24.9%
Blood glucose profile, −30 min post glucose load (C57BL/KsBom-db/db mice [3]): 13.6 ± 0.46 mM
Blood glucose % change compared to control, −30 min post glucose load (C57BL/KsBom-db/db mice [3]): 17.4%

Source: patent US20110077294A1, “R-(-) / S-(+)-7-[3-N SUBSTITUTED AMINO-2 HYDROXYPROPOXY] FLAVONES” (priority 2006, published 2011)
